Measured values: EP0476658B1, “1-Phenyl-3-phenyl-2-propyne-1-ones” (MERRELL DOW PHARMACEUTICALS INC., priority 1990, dated 1992)

Legend:
Rat PMNL [1] = assay: Superoxide anion (SOA) production by stimulated PMNL; type: cell-based
Method: (§1) Rat PMNL were obtained from exudates resulting from peritoneal injection of 6 mL of 8% sodium caseinate. Eighteen hours after injection rats were killed by carbon dioxide inhalation and the peritoneal cavity lavaged with Hank's balanced salt solution (HBSS). After concentration of the PMNL by centrifugation, contaminating erythrocytes were removed by hypotonic lysis. The PMNL were then washed twice by centrifugation (400 x g for 10 minutes) and resuspended in HBSS. Cell viability was greater than 90% by Trypan Blue exclusion and greater than 90% of the cells were PMNL by Wright-Giemsa stain.
Aliquots (50 µl) of a rat PMNL suspension (2 x 10⁷ cells/mL in HBSS) were incubated with 50 µl of HBSS containing vehicle (0.3% DMSO) or compound for 30 minutes at 37°C as above. One hundred microliters of buffer containing 5.98 mg/mL of cytochrome C (Sigma Type III) and 0.1 mg/mL catalase, plus the compounds where appropriate, were then added to each sample. A blank for spectrophotometric measurement, containing unstimulated cells in the presence of cytochrome C, catalase and SOD, was also prepared. […] Aliquots (200 µl) of supernatant were then transferred to a second, flat-well microtiter plate and measured spectrophotometrically at 550 nm. […]

Rat PMNL [2] = assay: Myeloperoxidase (MPO) release from stimulated PMNL; type: cell-based; details: fMLP (with cytochalasin B), opsonized zymosan or ionomycin stimulation
Method: as §1
MPO release was determined using the MPO catalyzed oxidation of O-dianisidine. The experiments were carried out in 96-well microtiter plates (Webster and Henson, 1978). In each well, 50 microliter (µl) aliquots of a PMNL suspension (2 x 10⁷ cells/mL in HBSS) were incubated with 50 µl of HBSS containing vehicle (0.3% DMSO) or inhibitor for 30 minutes at 37°C. The final DMSO concentration never exceeded 0.3% and was constant throughout each experiment. […] The stimuli were added in 50 µl HBSS which also contained the compounds or vehicle, as appropriate, to avoid changing the inhibitor concentration. Cell activation was terminated by centrifugation of the plates at 600 x g for 5 minutes at 22°C. […] Absorbances of the samples were measured at 450 nm. […]

[3] = tested on: Mustard Oil-Induced Mouse Ear Edema; assay: Mustard oil-induced mouse ear edema; type: in vivo; details: 30 minutes prior to mustard oil, ear weight 30 minutes after, male CD-1 mice
Method: Charles River male CD-1 mice weighing 30-60 grams were divided into randomized groups. They were dosed i.p. for 30 minutes prior or orally 1 hour prior to application of 20 ul of mustard oil (10% isothiocyanate in acetone) to the right ear. After 30 minutes the mice were sacrificed and an 8 millimeter diameter circular punch biopsy of each ear was obtained and weighed. The difference between the left (control) and right (treated) ear weights were expressed as percent increase.

[4] = tested on: Carrageenin-Induced Rat Paw Edema; assay: Carrageenin-induced rat paw edema; type: in vivo; details: 75 mg/Kg i.p. one hour prior to carrageenin; paw volume three hours after; male Sprague Dawley rats
Method: Charles River male Sprague Dawley rats weighing 90 to 100 grams were used. Inflammation of the left hind paw was induced by a 1% carrageenin solution (0.05 cc), injected into the plantar surface of the paw. The contralateral paw was injected with an equal volume of saline. Drugs were administered 75 mg/Kg i.p. (1 cc/100 grams) one hour prior to paw injection. Three hours following the carrageenin injection the difference in volume of the control and inflamed paw was measured. Each paw was immersed in a well of mercury and the volume of mercury displaced was recorded. Paws were uniformly dipped into the mercury up to the beginning of the hairline. A venous pressure transducer, coupled to an chart recorder, was employed to measure the small volumes of mercury displaced. Each group measurement consists of the average of four rats, each with three separate measurements.

Rat PMNL [5] = assay: Measurement of intracellular calcium (Fura-2) in fMLP-stimulated PMNL; type: cell-based; details: preincubation of PMNL with compound 15 minutes at 37°C, fMLP stimulus; second wave = influx of extracellular calcium
Method: as §1
Intracellular calcium levels were obtained using Fura-2 as fluorescent indicator (Grynkiewicz et al., 1985). Fura-2 was loaded into PMNL as the acetoxymethyl ester (Fura-2/AM) using the method of Korchak et al., (1988). Specifically, 1 X 10⁸ PMNL/mL were incubated in HBSS with 10 µM Fura-2/AM for 10 minutes at 37°C. The cells suspension was then diluted ten fold with HBSS and further incubated for another 20 minutes. The cells were then centrifuged (400 x g for 8 minutes at 25°C) and the PMNL (1 x 10⁷ cells/mL) resuspended in HBSS containing 1% bovine serum albumin. Cells were stored at room temperature and used within 3 hours.
Intracellular calcium level determinations were made using a dual wavelength spectrofluorometer (Photon Technology International, New Brunswick, NJ). […]

O=C(C#Cc1ccncc1)c1ccccc1 [MDL 101,098, 1-phenyl-3-(4-pyridinyl)-2-propyne-1-one]
inhibition of superoxide anion production (Rat PMNL [1]; PMA and OZ stimulation): inhibited in a dose dependent fashion | inhibition at 1 µM (Rat PMNL [1]; Rattus norvegicus, PMNL, inhibition of superoxide anion production, PMA, CONC 1 uM): -20.7%

CN(C)c1ccc(C(=O)C#Cc2ccncc2)cc1 [MDL 102,175, 1-(4-dimethylaminophenyl)-3-(4-pyridinyl)-2-propynel-1-one]
inhibition of release of myeloperoxidase (Rat PMNL [2]): dose dependent inhibition

COc1ccc(COc2cccc(C#CC(=O)c3ccccc3)c2)cc1 [MDL 100,225, 1-phenyl-3-[3-(4-methoxybenzyloxy)phenyl]-2-propyne-1-one]
%Inhibition ([3]; 10 mg/Kg i.p.): 25.3 ± 17.8% | %Inhibition ([3]; 30 mg/Kg i.p.): 33.4 ± 14.6% | %Inhibition ([3]; 100 mg/Kg i.p.): 60.9 ± 11.7% | %Inhibition [4]: 24.3% ± 10.3%

O=C(C#Cc1ccc(OCc2ccccc2)cc1)c1ccccc1 [MDL 101,097, 1-phenyl-3-[(4-benzyloxy)phenyl]-2-propyne-1-one]
effect on fMLP-induced intracellular calcium changes (Rat PMNL [5]): selective concentration-dependent suppression of the second wave of intracellular calcium changes
